# From US20110288057A1, “SALICYLIC ACID DERIVATIVES BEING FARNESYL PYROPHOSPHATE SYNTHASE ACTIVITY INHIBITORS” (Novartis AG, priority 2008, published 2011)
# Target: T1, Recombinant human Farnesyl Pyrophosphate synthase (FPPS) (Homo sapiens, UniProt P14324)
# T1 construct: made in house
# T1 sequence (P14324 72-419 limits assumed): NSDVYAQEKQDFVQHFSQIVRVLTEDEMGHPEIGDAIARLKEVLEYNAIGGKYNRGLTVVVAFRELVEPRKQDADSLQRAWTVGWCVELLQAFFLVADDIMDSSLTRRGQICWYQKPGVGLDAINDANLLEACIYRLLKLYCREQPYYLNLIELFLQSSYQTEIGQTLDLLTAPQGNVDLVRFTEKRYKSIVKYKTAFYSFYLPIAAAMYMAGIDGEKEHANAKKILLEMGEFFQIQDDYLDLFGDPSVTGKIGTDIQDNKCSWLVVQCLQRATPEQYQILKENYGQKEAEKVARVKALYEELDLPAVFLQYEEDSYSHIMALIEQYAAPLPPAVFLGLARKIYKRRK
# Assay: FPPS SPA (scintillation proximity FlashPlate assay of FPPS inhibition)
# Format: biochemical
# Settings: Example 13 table; FPPS SPA; read-out: IC50
row,IC50,SMILES
1,> 10 µM,O=C(O)c1ccc(-c2cccc(OC(F)(F)F)c2)cc1OCc1cccc2ccccc12 [13 ae)]
2,0.38 µM,O=C(O)c1ccc(-c2ccc(CO)cc2)cc1OCc1cccc2ccccc12 [13 as)]
3,0.24 µM,O=C(O)c1ccc(-c2ccc3c(c2)OCO3)cc1OCc1cccc2ccccc12 [13 ba)]
4,0.44 µM,Cc1cc(Cl)ccc1-c1ccc(C(=O)O)c(OCc2cccc3ccccc23)c1 [13 aw)]
5,0.5 µM,O=C(O)c1ccc(-c2cccc(CO)c2)cc1OCc1cccc2ccccc12 [13 ad)]
6,0.26 µM,COc1ccc(-c2ccc(C(=O)O)c(OCc3cccc4ccccc34)c2)cc1OC [13 ab)]
7,0.32 µM,O=C(O)c1ccc(-c2ccc(F)c(F)c2)cc1OCc1cccc2ccccc12 [13 ai)]
8,0.55 µM,O=C(O)c1ccc(-c2ccoc2)cc1OCc1cccc2ccccc12 [13 aj)]
9,1.46 µM,O=C(O)c1ccc(-c2ccc(Cl)c(Cl)c2)cc1OCc1cccc2ccccc12 [13 ac)]
10,0.38 µM,COc1ccc2cc(-c3ccc(C(=O)O)c(OCc4cccc5ccccc45)c3)ccc2c1 [13 ay)]
11,0.13 µM,CC(=O)Nc1ccc(-c2ccc(C(=O)O)c(OCc3cccc4ccccc34)c2)cc1 [13 da)]
12,0.38 µM,O=C(O)c1ccc(-c2cccc(O)c2)cc1OCc1cccc2ccccc12 [13 au)]
13,1.12 µM,O=C(O)c1ccc(-c2cc3ccccc3o2)cc1OCc1cccc2ccccc12 [13 al)]
14,1.14 µM,O=C(O)c1ccc(-c2cccc(F)c2)cc1OCc1cccc2ccccc12 [13 aq)]
15,1.93 µM,COc1ccccc1-c1ccc(C(=O)O)c(OCc2cccc3ccccc23)c1 [13 ap)]
16,1.35 µM,O=C(O)c1ccc(-c2csc3ccccc23)cc1OCc1cccc2ccccc12 [13 an)]
17,0.42 µM,O=C(O)c1ccc(-c2ccc3c(c2)OCCO3)cc1OCc1cccc2ccccc12 [13 ao)]
18,0.27 µM,Cn1ccc2cc(-c3ccc(C(=O)O)c(OCc4cccc5ccccc45)c3)ccc21 [13 ca)]
19,0.34 µM,O=C(O)c1ccc(-c2ccc3[nH]ccc3c2)cc1OCc1cccc2ccccc12 [13 am)]
20,1.1 µM,Cc1cccc(C)c1-c1ccc(C(=O)O)c(OCc2cccc3ccccc23)c1 [13 ag)]
21,0.26 µM,O=C(O)c1ccc(-c2cccc3[nH]ccc23)cc1OCc1cccc2ccccc12 [13 ah)]
22,1.55 µM,COc1cccc(-c2ccc(C(=O)O)c(OCc3cccc4ccccc34)c2)c1 [13 af)]
23,0.53 µM,Cc1ccccc1-c1ccc(C(=O)O)c(OCc2cccc3ccccc23)c1 [13 ar)]
24,0.4 µM,Cc1cccc(-c2ccc(C(=O)O)c(OCc3cccc4ccccc34)c2)c1 [13 ax)]
25,0.23 µM,O=C(O)c1ccc(-c2ccccc2F)cc1OCc1cccc2ccccc12 [13 ak)]

# Same assay, conditions: Example 15 table; FPPS SPA; read-out: IC50
row,SMILES,IC50
1,CC(Nc1ccc(C(=O)O)c(OCc2cccc3ccccc23)c1)C(C)(C)C (centres unmarked) [15 aq)],0.65 µM
2,CN(CCO)c1ccc(C(=O)O)c(OCc2cccc3ccccc23)c1 [15 af)],0.72 µM
3,CCNc1ccc(C(=O)O)c(OCc2cccc3ccccc23)c1 [15 ao)],0.73 µM
4,O=C(O)c1ccc(NC2CCCC2)cc1OCc1cccc2ccccc12 [15 aa)],0.63 µM
5,COCCNc1ccc(C(=O)O)c(OCc2cccc3ccccc23)c1 [15 ar)],8.1 µM
6,O=C(O)c1ccc(N[C@H]2CC[C@H](O)CC2)cc1OCc1cccc2ccccc12 [15 am)],0.19 µM
7,CC1CCC(Nc2ccc(C(=O)O)c(OCc3cccc4ccccc34)c2)CC1 (centres unmarked) [15 ak)],1.24 µM
8,CCCN(CC1CC1)c1ccc(C(=O)O)c(OCc2cccc3ccccc23)c1 [15 ah)],1.31 µM
9,O=C(O)c1ccc(NC2CCCCCC2)cc1OCc1cccc2ccccc12 [15 aj)],1.79 µM
10,C[C@H](Nc1ccc(C(=O)O)c(OCc2cccc3ccccc23)c1)C1CCCCC1 [15 ai)],3.52 µM
11,CC(C)(C)CNc1ccc(C(=O)O)c(OCc2cccc3ccccc23)c1 [15 ad)],0.47 µM
12,CN1CCCN(c2ccc(C(=O)O)c(OCc3cccc4ccccc34)c2)CC1 [15 at)],6.45 µM
13,O=C(O)c1ccc(N2CCCCCC2)cc1OCc1cccc2ccccc12 [15 ac)],0.53 µM
14,COCCN(C)c1ccc(C(=O)O)c(OCc2cccc3ccccc23)c1 [15 ae)],1.39 µM
15,CN1CCC(Nc2ccc(C(=O)O)c(OCc3cccc4ccccc34)c2)CC1 [15 aw)],4.75 µM
16,O=C(O)c1ccc(NCCCO)cc1OCc1cccc2ccccc12 [15 ab)],2.31 µM
17,O=C(O)c1ccc(NCC2CCCCC2)cc1OCc1cccc2ccccc12 [15 ag)],2.43 µM
18,CN1CCCC1CCNc1ccc(C(=O)O)c(OCc2cccc3ccccc23)c1 (centres unmarked) [15 ap)],17.5 µM
19,O=C(O)c1ccc(N2CCOCC2)cc1OCc1cccc2ccccc12 [15 au)],3.18 µM
20,CCCNc1ccc(C(=O)O)c(OCc2cccc3ccccc23)c1 [15 al)],0.37 µM
21,CC(=O)N1CCN(c2ccc(C(=O)O)c(OCc3cccc4ccccc34)c2)CC1 [15 as)],6.5 µM

# Now from value to compound:
row,IC50,SMILES
1,38.6 µM,CN1CCN(c2ccc(C(=O)O)c(OCc3cccc4ccccc34)c2)CC1 [15 ba)]
2,26.6 µM,CCN(CC)CCN(C)c1ccc(C(=O)O)c(OCc2cccc3ccccc23)c1 [15 az)]

# Same assay, conditions: Example 16 table; FPPS SPA; read-out: IC50
row,IC50,SMILES
1,1.2 µM,O=C(O)c1ccc(NCC2CC2)cc1OCc1cccc2ccccc12 [16 c)]
2,0.21 µM,O=C(O)c1ccc(NCc2ccccc2)cc1OCc1cccc2ccccc12 [16 b)]

# Same assay, conditions: IC50, Example 13 table; FPPS SPA
row,IC50,SMILES
1,0.69 µM,O=C(O)c1ccc(-c2ccc(Cl)cc2)cc1OCc1cccc2ccccc12 [13 av)]
2,0.38 µM,O=C(O)c1ccc(-c2ccc(O)cc2)cc1OCc1cccc2ccccc12 [13 az)]
3,0.3 µM,O=C(O)c1ccc(-c2ccc(F)cc2)cc1OCc1cccc2ccccc12 [13 at)]

# Same assay, conditions: IC50, Example 15 table; FPPS SPA
row,IC50,SMILES
1,0.19 µM,CN(C)c1ccc(C(=O)O)c(OCc2cccc3ccccc23)c1 [15 an)]

# Same assay, conditions: IC50 on FPPS, test system termed "FPS SPA" (Example 18)
row,IC50,SMILES
1,12.5 µM,O=C(O)c1ccccc1OCc1cccc2ccccc12 [Example 17 r)]

# Same assay, conditions: Inhibition according to the FPPS SPA (Example 21); read-out: IC50
row,IC50,SMILES
1,1.83 µM,Cc1ccc(COc2ccccc2C(=O)O)c2ccccc12 [17 e)]
2,6.75 µM,O=C(O)c1ccc(Br)cc1OCc1cccc2ccccc12 [17 q)]
3,0.4 µM,CCN(CC)c1ccc(C(=O)O)c(OCc2cccc3ccccc23)c1 [17 i)]
4,0.24 µM,Cc1ccc(C)n1-c1ccc(C(=O)O)c(OCc2cccc3ccccc23)c1 [17 g)]
5,0.73 µM,O=C(O)c1ccc(OCc2ccccc2)cc1OCc1cccc2ccccc12 [17 n)]
6,0.77 µM,CCN(CC)c1ccc(C(=O)O)c(OCc2c(Cl)ccc3ccccc23)c1 [17 a)]
7,2.5 µM,Cc1cc(O)c(C(=O)O)c(OCc2cccc3ccccc23)c1 [17 p)]
8,0.34 µM,Cc1ccc2ccccc2c1COc1ccccc1C(=O)O [17 b)]
9,1.9 µM,CC(C)CCOc1ccc(C(=O)O)c(OCc2cccc3ccccc23)c1 [17 m)]
10,12.8 µM,O=C(O)c1ccccc1OCc1cccc2ccccc12 [17 r)]
11,0.81 µM,O=C(O)c1ccc(C(F)(F)F)cc1OCc1cccc2ccccc12 [17 k)]
12,0.84 µM,O=C(O)c1cc2ccccc2cc1OCc1cccc2ccccc12 [17 h)]
13,0.88 µM,COc1ccc(OCc2cccc3ccccc23)c(C(=O)O)c1 [17 o)]
14,1.82 µM,CCN(CC)c1ccc(C(=O)O)c(OCc2cccc3ccc(Cl)cc23)c1 [17 f)]
15,0.48 µM,Cc1ccc2ccccc2c1COc1cc(-n2c(C)ccc2C)ccc1C(=O)O [17 c)]
16,1.34 µM,COc1ccc(C(=O)O)c(OCc2cccc3ccccc23)c1 [17 s)]
17,2.91 µM,O=C(O)c1ccc(OC(F)(F)F)cc1OCc1cccc2ccccc12 [17 l)]
18,0.66 µM,CCN(CC)c1ccc(C(=O)O)c(OCc2c(C)ccc3ccccc23)c1 [17 d)]
19,2.96 µM,O=C(O)c1cc(Cl)ccc1OCc1cccc2ccccc12 [17 j)]
